In one data set the test system is Boophilus microplus. The data set can be described thus: Boophilus microplus test (BOOPMI injection). It is filed as in vivo. Particulars: 20 μg/animal, after 7 days. The procedure: Boophilus microplus Test (BOOPMI Injection) [table] To produce a suitable active compound formulation, 10 mg of active compound are mixed with 0.5 ml of solvent and the concentrate is diluted with solvent to the desired concentration. The active compound solution is injected into the abdomen (Boophilus microplus), and the animals are transferred into dishes and stored in a climate-controlled room. After 7 days, the efficacy in % is determined. The activity is assessed by laying of fertile eggs. 100% means that none of the ticks has laid any fertile eggs.

For a further data set, the system named is Ctenocephalides felis. The data set is described as follows: Ctenocephalides felis; oral (CTECFE). Format: in vivo. Particulars: 100 ppm, oral in cattle blood, after 2 days. How it is done:
Ctenocephalides felis; Oral (CTECFE)
To produce a suitable active compound formulation, 10 mg of active compound are mixed with 0.5 ml of dimethyl sulphoxide. A portion of the concentrate is diluted with citrated cattle blood, and the desired concentration is prepared.
About 20 unfed adult fleas (Ctenocephalides felis) are placed into a chamber which is closed at the top and bottom with gauze. A metal cylinder whose bottom end is closed with parafilm is placed onto the chamber. The cylinder contains the blood/active compound preparation, which can be imbibed by the fleas through the parafilm membrane.
After 2 days, the kill in % is determined 100% means that all fleas have been killed; 0% means that none of the fleas have been killed.

The next data set has as its system Lucilia cuprina larvae. The data set can be described thus: Lucilia cuprina test (LUCICU). It is filed as in vivo. Particulars: 100 ppm, after 2 days. How it is done: Lucilia cuprina Test (LUCICU) [table] To produce a suitable active compound formulation, 10 mg of active compound are mixed with 0.5 ml of dimethyl sulfoxide, and the concentrate is diluted with water to the desired concentration. Vessels containing horse meat treated with the active compound formulation of the desired concentration are populated with about 20 Lucilia cuprina larvae. After 2 days, the kill in % is determined 100% means that all the larvae have been killed; 0% means that none of the larvae have been killed.

A further data set concerns adult Musca domestica. The data set is described as follows: Musca domestica test (MUSCDO). It is filed as in vivo. Particulars: 100 ppm, after 2 days. The procedure: Musca domestica Test (MUSCDO) [table] To produce a suitable active compound formulation, 10 mg of active compound are mixed with 0.5 ml of dimethyl sulfoxide, and the concentrate is diluted with water to the desired concentration. Vessels containing a sponge treated with the active compound formulation of the desired concentration are populated with adult Musca domestica. After 2 days, the kill in % is determined 100% means that all flies have been killed; 0% means that no flies have been killed.

Data set [1] concerns larvae of the mustard beetle (Phaedon cochleariae). The data set can be described thus: Phaedon cochleariae spray test (PHAECO). Particulars: for pest or weed control at 100 g/ha / efficacy: spray, after 7 days, 100 g/ha; for pest or weed control at 100 g/ha: read-out: efficacy. It is filed as in vivo. The procedure:
Phaedon cochleariae—Spray Test (PHAECO)
(§1) To produce a suitable preparation of active compound, 1 part by weight of active compound is mixed with the stated amounts of solvent and emulsifier, and the concentrate is diluted with emulsifier-containing water to the desired concentration.
Discs of Chinese cabbage leaves (Brassica pekinensis) are sprayed with an active compound formulation of the desired concentration and, after drying, populated with larvae of the mustard beetle (Phaedon cochleariae).
After 7 days, the efficacy in % is determined. 100% means that all the beetle larvae have been killed; 0% means that no beetle larvae have been killed.
After the stated period of time, the effect in % is determined 100% means that all the beetle larvae have been killed; 0% means that no beetle larvae have been killed.

Data set [2] has as its system caterpillars of the armyworm (Spodoptera frugiperda). The data set is described as follows: Spodoptera frugiperda spray test (SPODFR). It is filed as in vivo. Particulars: for efficacy: 100 g/ha, spray, after 7 days. The procedure:
Spodoptera frugiperda—Spray Test (SPODFR)
(§2) To produce a suitable active compound formulation, 1 part by weight of active compound is mixed with the stated amounts of solvent and emulsifier, and the concentrate is diluted with emulsifier-containing water to the desired concentration.
Leaf discs of maize (Zea mays) are sprayed with an active compound formulation of the desired concentration and, after drying, populated with caterpillars of the armyworm (Spodoptera frugiperda).
After 7 days, the efficacy in % is determined. 100% means that all the caterpillars have been killed; 0% means that no caterpillars have been killed.
as §1
Leaf discs of maize (Zea mays) are sprayed with an active compound preparation of the desired concentration and, after drying, populated with caterpillars of the armyworm (Spodoptera frugiperda).
After the stated period of time, the effect in % is determined. 100% means that all the caterpillars have been killed; 0% means that no caterpillars have been killed.

In data set [3] the test system is greenhouse red spider mite (Tetranychus urticae). The data set can be described thus: Tetranychus urticae spray test, OP-resistant (TETRUR). Format: in vivo. Particulars: for efficacy: 100 g/ha, spray, after 6 days. How it is done:
as §2
Discs of bean leaves (Phaseolus vulgaris) infested by all stages of the greenhouse red spider mite (Tetranychus urticae) are sprayed with an active compound formulation of the desired concentration.
After 6 days, the efficacy in % is determined 100% means that all the spider mites have been killed; 0% means that none of the spider mites have been killed. […]

Data set [4] can be described thus: log P by HPLC on reversed-phase column (C18), EEC directive 79/831 Annex V.A8. It is filed as physicochemical. Particulars: for chromatographic logP: reversed-phase HPLC column (C18). The procedure:
a) The determination of the W by LC-MS in the acidic range is effected at pH 2.7, acetonitrile (contains 0.1% formic acid) and water as eluents; linear gradient from 10% acetonitrile to 95% acetonitrile, instrument: Agilent 1100 LC-System, Agilent MSD System, HTS PAL. The log P values reported in the tables and Preparation Examples above were determined in accordance with EEC directive 79/831 Annex V.A8 by HPLC (High Performance Liquid Chromatography) using a reversed-phase column (C18). Temperature 43° C. The calibration is effected with unbranched alkan-2-ones (having 3 to 16 carbon atoms), for which the log P values are known.

The mark [5] stands for this setting: HPLC, acidic range pH 2.7, 43° C.

Like-named read-outs stand apart in the source and are kept apart here.

For `CCn1c(C(=O)NC(c2cccc(C(F)(F)F)c2)C(F)(F)F)cc2cc(C(=O)NC3CC3)c(C)nc21` (stereo not shown) [Compound 1, N^5-Cyclopropyl-1-ethyl-6-methyl-N^2-{2,2,2-trifluoro-1-[3-(trifluoromethyl)phenyl]ethyl}-1H-pyrrolo[2,3-b]pyridine-2,5-dicarboxamide], the “efficacy (laying of fertile eggs)” value in the data set with Boophilus microplus is given as 100%. Moreover, the “efficacy (kill)” value in the data set on Ctenocephalides felis, with Lucilia cuprina larvae and in the data set on adult Musca domestica was 100% in each case. The pest or weed control at 100 g/ha in data set [1] (Phaedon cochleariae, 168 h) stood at 100%. Also, the efficacy in data set [2] is listed as 100%; in data set [3] it was 90%. Besides, the chromatographic logP in data set [4] (pH 2.7, final compounds of the synthesis examples, read-out: log P (HPLC-MS)) is 3.52.
`CCn1c(C(=O)NC(c2ccc(Cl)c(Cl)c2)C(F)(F)F)cc2cc(C(=O)NC3(C#N)CC3)c(Cl)nc21` (stereo not shown) [Compound 32]: the “efficacy (laying of fertile eggs)” value in the data set on Boophilus microplus is recorded as 100%. In addition, the “efficacy (kill)” value with Ctenocephalides felis, in the data set with Lucilia cuprina larvae and in the data set on adult Musca domestica was 100% each time. For the same compound, the efficacy in data set [1], in data set [2] and in data set [3] was 100% throughout. In data set [4] (setting [5]), this compound came in with a log p of 3.94.
On to `CCn1c(C(=O)NC(c2cc(Cl)cc(Cl)c2)C(F)(F)F)cc2cc(C(=O)NC3CC3)c(Cl)nc21` (stereo not shown) [Compound 28], for which, in the data set with Boophilus microplus, the “efficacy (laying of fertile eggs)” value turned out to be 100%. Moreover, the figures for the “efficacy (kill)” value in the data set on Ctenocephalides felis, in the data set on Lucilia cuprina larvae and in the data set on adult Musca domestica were 95%, 100% and 100%, respectively. For the same compound, the efficacy in data set [1] and in data set [2] was 100% in each case.
On to `CCn1c(C(=O)NC(c2ccc(F)c(C(F)(F)F)c2)C(F)(F)F)cc2cc(C(=O)NC3(C#N)CC3)c(Cl)nc21` (stereo not shown) [Compound 53], for which the “efficacy (laying of fertile eggs)” value with Boophilus microplus came to 100%. Also, the “efficacy (kill)” value with Ctenocephalides felis, in the data set on Lucilia cuprina larvae and with adult Musca domestica was 100% each time. Further, the efficacy in data set [1], in data set [2] and in data set [3] was 100% each time. Moreover, the log p in data set [4] (setting [5]) amounted to 3.77.
On to `CCn1c(C(=O)NC(c2ccc(F)c(C(F)(F)F)c2)C(F)(F)F)cc2cc(C(=O)NC3(C(N)=S)CC3)c(Cl)nc21` (stereo not shown) [Compound 66], for which the efficacy in data set [1], in data set [2] and in data set [3] was 100% each time. Moreover, the log p in data set [4] (setting [5]) was found to be 3.64.
Take `C#CCn1c(C(=O)NC(c2cccc(C(F)(F)F)c2)C(F)(F)F)cc2cc(C(=O)NC3CC3)c(Cl)nc21` (stereo not shown) [Compound 23]: in the data set on Boophilus microplus, the “efficacy (laying of fertile eggs)” value worked out at 100%. Besides, the “efficacy (kill)” value with Lucilia cuprina larvae came out at 100%. The values for the efficacy in data set [1], in data set [2] and in data set [3] were 100%, 100% and 90%, respectively. The compound further displayed a log p in data set [4] (setting [5]) of 3.45.
With `Cn1c(C(=O)NC(c2cccc(C(F)(F)F)c2)C(F)(F)F)cc2cc(C(=O)NC3CC3)c(Cl)cc21` (stereo not shown) [reference compound], the percent efficacy (larval mortality) at 0.8 g/ha in data set [1] (Phaedon cochleariae, 168 h, PHAECO, 0.8 g of ai/ha, 7 d, read-out: % Efficacy dat) stood at 0%. Besides, the Emax at 4 g/ha in data set [2] (Spodoptera frugiperda, 168 h, SPODFR, 4 g of ai/ha, 7 d, read-out: % Efficacy dat) was determined as 17%; in data set [3] (Tetranychus urticae, 144 h, TETRUR, 4 g of ai/ha, 6 d, read-out: % Efficacy dat), 0%.
For the compound `CCn1c(C(=O)NC(c2cccc(C(F)(F)F)c2)C(F)(F)F)cc2cc(C(=O)NCC#N)c(Cl)nc21` (stereo not shown) [Compound 42], the “efficacy (laying of fertile eggs)” value with Boophilus microplus turned out to be 100%. Besides, the “efficacy (kill)” value with Ctenocephalides felis, in the data set with Lucilia cuprina larvae and in the data set on adult Musca domestica was 100% throughout. For the same compound, the pest or weed control at 100 g/ha in data set [1] (Phaedon cochleariae, 168 h) worked out at 100%. Moreover, the efficacy in data set [3] stood at 90%. Further, the Emax at 100 g/ha in data set [3] (Tetranychus urticae, 144 h, TETRUR, 100 g of ai/ha, 6 d, read-out: % Efficacy dat) was found to be 90%. The chromatographic logP in data set [4] (HPLC, acidic range pH 2.7, 43° C., read-out: log p) is 3.5.
As for `CCn1c(C(=O)NC(c2ccc(F)c(Cl)c2)C(F)(F)F)cc2cc(C(=O)NCc3ccccn3)c(Cl)nc21` (stereo not shown) [Compound 58], the “efficacy (laying of fertile eggs)” value in the data set with Boophilus microplus is 100%. For the same compound, the “efficacy (kill)” value in the data set with Ctenocephalides felis and in the data set with Lucilia cuprina larvae was 100% throughout. For the same compound, the efficacy in data set [1] and in data set [3] was 100% in each case. For the same compound, the log p in data set [4] (setting [5]) came to 3.17.
Take `CCn1c(C(=O)NC(c2cc(Cl)c(F)c(Cl)c2)C(F)(F)F)cc2cc(C(=O)NCc3ccccn3)c(Cl)nc21` (stereo not shown) [Compound 60]: in the data set on Boophilus microplus, the “efficacy (laying of fertile eggs)” value is recorded as 100%. Besides, the “efficacy (kill)” value worked out at 95% in the data set with Ctenocephalides felis and 100% with Lucilia cuprina larvae. The figures for the efficacy in data set [1] and in data set [3] were 100% and 90%, respectively. Also, in data set [4] (setting [5]), the log p is on record as 3.67.
As to `CCn1c(C(=O)NC(c2ccc(F)c(C(F)(F)F)c2)C(F)(F)F)cc2cc(C(=O)NC3CC3)c(C)nc21` (stereo not shown) [Compound 76], the efficacy in data set [1], in data set [2] and in data set [3] was 100% in each case. Further, the log p in data set [4] (setting [5]) was 3.67.
As to `CCn1c(C(=O)NC(c2cccc(C(F)(F)F)c2)C(F)(F)F)cc2cc(C(=O)NCC(F)(F)F)c(Cl)nc21` (stereo not shown) [Compound 41], the “efficacy (laying of fertile eggs)” value in the data set on Boophilus microplus is on record as 100%. The “efficacy (kill)” value in the data set on Ctenocephalides felis, in the data set on Lucilia cuprina larvae and in the data set with adult Musca domestica was 100% throughout. In addition, the efficacy in data set [1] and in data set [2] was 100% in each case. In data set [4] (setting [5]), this compound registered a log p of 4.08.
For the compound `CCn1c(C(=O)NC(c2ccc(F)c(C(F)(F)F)c2)C(F)(F)F)cc2cc(C(=O)NC3CC3)c(Cl)nc21` (stereo not shown) [Compound 29], in the data set on Boophilus microplus, the “efficacy (laying of fertile eggs)” value stood at 100%. Also, the figures for the “efficacy (kill)” value with Ctenocephalides felis, with Lucilia cuprina larvae and in the data set with adult Musca domestica were 95%, 100% and 100%, respectively. Besides, the values for the efficacy in data set [1], in data set [2] and in data set [3] were 100%, 100% and 90%, respectively.
As for `CCn1c(C(=O)NC(c2ccc(F)c(Cl)c2)C(F)(F)F)cc2cc(C(=O)NC3CC3)c(Cl)nc21` (stereo not shown) [Compound 16], in the data set with Boophilus microplus, the “efficacy (laying of fertile eggs)” value is on record as 100%. The “efficacy (kill)” value in the data set on Ctenocephalides felis, in the data set on Lucilia cuprina larvae and with adult Musca domestica was 100% throughout. The efficacy in data set [1] amounted to 100%; in data set [3], 90%. The compound further came in with a log p in data set [4] (setting [5]) of 3.61.
